Measured values reported in ChEMBL document CHEMBL4190211, “Biosynthesis of Fluorinated Peptaibols Using a Site-Directed Building Block Incorporation Approach” (J Nat Prod, 2017).
Square brackets hold non-standard residues; d marks the D form. Peptide text beside a SMILES is read from it. * marks the point of attachment. Phe(ol) = N[C@H](CO)Cc1ccccc1; X1 = OC[C@H](Cc1cccc(F)c1)N*; X2 = OC[C@H](Cc1ccccc1F)N*; Aib = CC(C)(N)C(=O)O

Tests used:
OVCAR-3 = test: Cytotoxicity against human OVCAR3 cells assessed as decrease in cell viability after 72 hrs by CellTiter 96 AQueous one solution cell proliferation assay; type: functional, cell-based; conditions: OVCAR-3, 72 h
MDA-MB-231 = test: Cytotoxicity against human MDA-MB-231 cells assessed as decrease in cell viability after 72 hrs by CellTiter 96 AQueous one solution cell proliferation assay; conditions: MDA-MB-231, 72 h
MDA-MB-435 = test: Cytotoxicity against human MDA-MB-435 cells assessed as decrease in cell viability after 72 hrs by CellTiter 96 AQueous one solution cell proliferation assay; type: functional, cell-based; conditions: MDA-MB-435, 72 h

CC(=O)NC(C)(C)C(=O)N[C@@H](C)C(=O)NC(C)(C)C(=O)N[C@@H](C)C(=O)NC(C)(C)C(=O)N[C@@H](C)C(=O)N[C@@H](CCC(N)=O)C(=O)NC(C)(C)C(=O)N[C@H](C(=O)NC(C)(C)C(=O)NCC(=O)N[C@@H](CC(C)C)C(=O)NC(C)(C)C(=O)N1CCC[C@H]1C(=O)N[C@H](C(=O)NC(C)(C)C(=O)NC(C)(C)C(=O)N[C@@H](CCC(N)=O)C(=O)N[C@@H](CCC(N)=O)C(=O)N[C@H](CO)Cc1cccc(F)c1)C(C)C)C(C)C (Ac-[Aib]A[Aib]A[Aib]AQ[Aib]V[Aib]GL[Aib]PV[Aib][Aib]QQ-X1)
IC50 (OVCAR-3): 4.4 µM

CC(=O)NC(C)(C)C(=O)N[C@@H](C)C(=O)NC(C)(C)C(=O)N[C@@H](C)C(=O)NC(C)(C)C(=O)N[C@@H](C)C(=O)N[C@@H](CCC(N)=O)C(=O)NC(C)(C)C(=O)N[C@H](C(=O)NC(C)(C)C(=O)NCC(=O)N[C@@H](CC(C)C)C(=O)NC(C)(C)C(=O)N1CCC[C@H]1C(=O)N[C@H](C(=O)NC(C)(C)C(=O)NC(C)(C)C(=O)N[C@@H](CCC(N)=O)C(=O)N[C@@H](CCC(N)=O)C(=O)N[C@H](CO)Cc1ccccc1F)C(C)C)C(C)C (Ac-[Aib]A[Aib]A[Aib]AQ[Aib]V[Aib]GL[Aib]PV[Aib][Aib]QQ-X2)
IC50 (OVCAR-3): 5 µM

CC(=O)NC(C)(C)C(=O)N[C@@H](C)C(=O)NC(C)(C)C(=O)N[C@@H](C)C(=O)NC(C)(C)C(=O)N[C@@H](C)C(=O)N[C@@H](CCC(N)=O)C(=O)NC(C)(C)C(=O)N[C@H](C(=O)NC(C)(C)C(=O)NCC(=O)N[C@@H](CC(C)C)C(=O)NC(C)(C)C(=O)N1CCC[C@H]1C(=O)N[C@H](C(=O)NC(C)(C)C(=O)NC(C)(C)C(=O)N[C@@H](CCC(N)=O)C(=O)N[C@@H](CCC(N)=O)C(=O)N[C@H](CO)Cc1ccccc1)C(C)C)C(C)C (Ac-[Aib]A[Aib]A[Aib]AQ[Aib]V[Aib]GL[Aib]PV[Aib][Aib]QQ[Phe(ol)])
IC50 (MDA-MB-231): 5.1 µM | IC50 (MDA-MB-435): 4.8 µM | IC50 (OVCAR-3): 5.1 µM

CC(=O)O[C@H]1C(=O)[C@@]2(C)[C@H]([C@H](OC(=O)c3ccccc3)[C@]3(O)C[C@H](OC(=O)[C@H](O)[C@@H](NC(=O)c4ccccc4)c4ccccc4)C(C)=C1C3(C)C)[C@]1(OC(C)=O)CO[C@@H]1C[C@@H]2O [PACLITAXEL]
IC50 (OVCAR-3): 0.002 µM
